Test results published in PubChem BioAssay AID2060895 (Molecular Pharmacology Branch, DTP, NCI, 2025).

Test system: PDC 899932-113-R3-J6 complex spheroid viability
Experiment: Anticancer human tumor 899932-113-R3-J6-PDC patient-derived melanoma cell line growth inhibition [RAS]
Details: for viability, T/C: stronger effect = lower value
Procedure, shortened: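 Agents were tested in combination matrices in half-log decrements from a top concentration at or near clinical Cmax (10 microM if undetermined). Targets were multi-cell spheroids of tumour lines plus HUVEC and MSC stromal cells.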
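For viability, T/C in this document: spheroids exposed to agents for seven days before readout; 100% = DMSO vehicle control wells.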

SMILES: CC(C)NCC(C(=O)N1CCN(c2ncnc3c2C(C)CC3O)CC1)c1ccc(Cl)cc1 (centres undefined) + CCn1c(-c2cc(N3CCN(C)CC3)cnc2C(C)OC)c2c3cc(ccc31)-c1csc(n1)CC(NC(=O)C1CC1C)C(=O)N1CCCC(N1)C(=O)OCC(C)(C)C2
- IC50 (curve of first compound, second compound 0.000949 µM): 1180 nM
- IC50 (curve of first compound, second compound 0.003 µM): < 31.6 nM
- IC50 (curve of first compound, second compound 0.00949 µM): < 31.6 nM
- IC50 (curve of first compound, second compound 0.03 µM): < 31.6 nM
- IC50 (curve of first compound, second compound 0.0949 µM): < 31.6 nM
- IC50 (curve of first compound, second compound 0.3 µM): < 31.6 nM
- viability, T/C (second compound 0.000949 µM, first compound 0.0316 µM): 80.5%
- viability, T/C (second compound 0.000949 µM, first compound 0.1 µM): 75.4%
- viability, T/C (second compound 0.000949 µM, first compound 0.316 µM): 61.7%
- viability, T/C (second compound 0.000949 µM, first compound 1 µM): 53.7%
- viability, T/C (second compound 0.000949 µM, first compound 3.16 µM): 37.1%
- viability, T/C (second compound 0.000949 µM, first compound 10 µM): 14.6%
- viability, T/C (second compound 0.003 µM, first compound 0.0316 µM): 34.5%
- viability, T/C (second compound 0.003 µM, first compound 0.1 µM): 32.8%
- viability, T/C (second compound 0.003 µM, first compound 0.316 µM): 26.5%
- viability, T/C (second compound 0.003 µM, first compound 1 µM): 19.6%
- viability, T/C (second compound 0.003 µM, first compound 3.16 µM): 10%
- viability, T/C (second compound 0.003 µM, first compound 10 µM): 5.05%
- viability, T/C (second compound 0.00949 µM, first compound 0.0316 µM): 4.77%
- viability, T/C (second compound 0.00949 µM, first compound 0.1 µM): 3.31%
- viability, T/C (second compound 0.00949 µM, first compound 0.316 µM): 3.85%
- viability, T/C (second compound 0.00949 µM, first compound 1 µM): 2.39%
- viability, T/C (second compound 0.00949 µM, first compound 3.16 µM): 1.83%
- viability, T/C (second compound 0.00949 µM, first compound 10 µM): 1.29%
- viability, T/C (second compound 0.03 µM, first compound 0.0316 µM): 3.08%
- viability, T/C (second compound 0.03 µM, first compound 0.1 µM): 2.84%
- viability, T/C (second compound 0.03 µM, first compound 0.316 µM): 2.3%
- viability, T/C (second compound 0.03 µM, first compound 1 µM): 1.95%
- viability, T/C (second compound 0.03 µM, first compound 3.16 µM): 0.99%
- viability, T/C (second compound 0.03 µM, first compound 10 µM): 0.77%
- viability, T/C (second compound 0.0949 µM, first compound 0.0316 µM): 2.64%
- viability, T/C (second compound 0.0949 µM, first compound 0.1 µM): 2.19%
- viability, T/C (second compound 0.0949 µM, first compound 0.316 µM): 2.43%
- viability, T/C (second compound 0.0949 µM, first compound 1 µM): 1.31%
- viability, T/C (second compound 0.0949 µM, first compound 3.16 µM): 1.13%
- viability, T/C (second compound 0.0949 µM, first compound 10 µM): 0.37%
- viability, T/C (second compound 0.3 µM, first compound 0.0316 µM): 1.88%
- viability, T/C (second compound 0.3 µM, first compound 0.1 µM): 2.14%
- viability, T/C (second compound 0.3 µM, first compound 0.316 µM): 2.14%
- viability, T/C (second compound 0.3 µM, first compound 1 µM): 0.97%
- viability, T/C (second compound 0.3 µM, first compound 3.16 µM): 0.62%
- viability, T/C (second compound 0.3 µM, first compound 10 µM): 0.36%

SMILES: CCn1c(-c2cc(N3CCN(C)CC3)cnc2C(C)OC)c2c3cc(ccc31)-c1csc(n1)CC(NC(=O)C1CC1C)C(=O)N1CCCC(N1)C(=O)OCC(C)(C)C2 (centres undefined)
- viability, T/C (compound 0.000949 µM): 76% [middle of 8 runs]
- viability, T/C (compound 0.003 µM): 38.2% [middle of 8 runs]
- viability, T/C (compound 0.00949 µM): 3.79% [middle of 8 runs]
- viability, T/C (compound 0.03 µM): 3.16% [middle of 8 runs]
- viability, T/C (compound 0.0949 µM): 2.66% [middle of 8 runs]
- viability, T/C (compound 0.3 µM): 2.33% [middle of 8 runs]
- IC50 (compound alone, run of 08/26/2024): 2.05 nM [middle of 7 runs]
